Patent US20210047290A1, “SPIRO COMPOUND AS INDOLEAMINE-2,3-DIOXYGENASE INHIBITOR” (SHANGHAI INSTITUTE OF ORGANIC CHEMISTRY, CHINESE ACADEMY OF …, priority 2018, published 2021)

What was measured:
[1] = target: T1, IDO in Hela cells (Homo sapiens, UniProt P14902); experiment: Test of cellular activity (kynurenine formation in interferon γ stimulated Hela cells); assay type: cell-based; conditions: head prints IPS cells, method: Hela cells, 48 h incubation, read at 480 nm
T1 construct: endogenous in cells; host or cells: HeLa cells stimulated with human interferon γ
T1 sequence (P14902 whole entry): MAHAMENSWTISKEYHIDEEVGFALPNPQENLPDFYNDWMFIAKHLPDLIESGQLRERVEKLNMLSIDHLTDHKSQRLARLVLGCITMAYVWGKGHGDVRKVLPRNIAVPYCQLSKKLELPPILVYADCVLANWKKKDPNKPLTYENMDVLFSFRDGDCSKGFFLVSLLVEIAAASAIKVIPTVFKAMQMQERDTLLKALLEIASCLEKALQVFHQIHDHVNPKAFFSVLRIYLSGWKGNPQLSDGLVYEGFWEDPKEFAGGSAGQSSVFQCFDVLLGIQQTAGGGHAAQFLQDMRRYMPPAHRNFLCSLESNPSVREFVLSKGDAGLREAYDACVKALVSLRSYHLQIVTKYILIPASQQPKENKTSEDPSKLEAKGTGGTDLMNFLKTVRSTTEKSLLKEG
Procedure: (3) Test Method of Cellular Activity
Hela cells (80 μL) was inoculated on a 96-well plate (5×10^3 for each well) to grow overnight. After the compound was diluted the next day, 1 μL of diluent and 100 μL of culture medium which contains human interferon γ (final concentration: 50 ng/m) were added into the 96-well plate to make the final volume reach […]. After incubating for 48 h, 80 μL of supernate was transferred from each well to a new […]. 10 μL 6.1N trichloroacetic acid was added into each well for mixing and incubation at 50° C. for 30 min, and […] N formyl-kynurenin into kynurenine. The reaction mixture was centrifuged at 2,500 rpm for 10 min, 70 μL of supernatant of each well was transferred to a new 96-well plate and mixed with 100 μL of 2% (w/v) dimethylaminobenzaldehyde acetic acid solution. After placing for 5-10 min, measurement was carried out at 480 nm with the SPECTRAmax i13 reader.

[2] = target: T2, IDO enzyme (Homo sapiens, UniProt P14902); experiment: IDO enzyme inhibitory activity test; assay type: biochemical; conditions: recombinant IDO, D-Trp substrate, reading at 321 nm for 40 min
T2 construct: made in house; host or cells: E. coli BL21 (pET28a-IDO plasmid)
T2 sequence (P14902 whole entry): as above
Procedure: (1) Induced Expression and Purification Method of IDO Protein
Firstly, DO gene was amplified with PCR, and the amplified PCR product was recycled. Digestion (2 h under 37° C.), gel running and recycling were carried out on the pET28a plasmid (purchased from Shanghai Baomanbio Co., Ltd.) and IDO gel with two restriction enzymes (EcoR I and Xho I). T4 ligase was connected with the product overnight, added into DH5α competence, placed on the ice for 30 min and subjected to thermal shock at 42° C. for 90 s.
BL21 which contained pET28a-IDO plasmid was shaken vigorously at 37° C. till OD600 was 0.6-0.8, added into hemin (final concentration: 40 μM) and 0.5 mM IPTG (isopropyl-3-D-IPTG) and induced under 16° C. for 20 h; after induction, thallus were collected centrifugally at 4° C. and 6,000 rpm, washed with 50 mM PBS (pH 7.5) and collected again centrifugally.
The collected thallus were suspended again with buffer solution (50 mM PBS pH 7.5). An appropriate amount of 100×PMSF was added. The thallus were disrupted with cell disruption instrument (1,400 bar) at 4° C. for three times. The split bacteria were centrifuged at 18,000×g for 45 min. The sediment was removed but supernatant was retained and filtered with a 0.45 μm film at 4° C.; the nickel column was balanced with lysis buffer (50 mM PBS pH7.5) by 3 column volumes.
The supernatant was loaded on the nickel column and washed with wash solution (50 mM PBS pH7.5, 50 mM imidazole) by 4 column volume. Finally, protein was eluted with eluant (50 mM PBS pH7.5, 250 mM imidazole); dialyzed for 6 h with dialysis solution (50 mM PBS pH7.5), concentrated, sub-packaged, quickly frozen with liquid nitrogen and stored at −80° C. for backup.
(2) Test Method for IDO Enzyme Inhibitory Activity
Firstly, the compound was diluted by triple gradient. 1 μL of each concentration was added into a 96-well plate; 50 μL of IDO Enzyme solution PBS (pH 7.5; final concentration: 50 mM) was added: 25 μL of substrate 1 (methylene blue, final concentration: […]; catalase, final concentration: 0.2 μg/L; PBS (pH 7.5; final concentration: 50 mM) mixture and 25 μL of substrate 2 (D-Trp, final concentration: 1.5 mM; sodium ascorbate, final concentration: 20 mM; PBS (pH 7.5), final concentration 50 mM) mixture were added for starting the reaction. Finally, OOD321 nm reading was carried out for 40 min.

## O=C(Nc1ccc(Cl)cc1)C1CC2(CCC(c3ccnc4ccc(F)cc34)CC2)C1 (single isomer, unassigned) [Example 15A, N-(4-chlorophenyl)-7-(6-fluoroquinolin-4-yl)spiro[3.5]nonane-2-carboxamide]
[1]
  IC50: > 10 nM
[2]
  IC50: 3660 nM

## O=C(Nc1ccc(Cl)cc1)C1CC2(CCC(c3ccnc4ccc(F)cc34)CC2)C1 (single isomer, unassigned) [Example 15B, N-(4-chlorophenyl)-7-(6-fluoroquinolin-4-yl)spiro[3.5]nonane-2-carboxamide]
[1]
  IC50: 2.53 nM
[2]
  IC50: 400 nM
